According to ChEMBL document CHEMBL4024787, “Target Identification and Mode of Action of Four Chemically Divergent Drugs against Ebolavirus Infection” (J Med Chem, 2018):

Experiments:
[1] = molecular target: T1, Envelope glycoprotein (Zaire ebolavirus (strain Mayinga-76) (ZEBOV) (Zaire Ebola virus)) (UniProt Q05320); assay: Binding affinity to Ebola virus Zaire Mayinga-76 recombinant GP protein assessed as change in melting temperature at 500 uM by SYPRO orange dye-based fluorescence assay; details: 1976
T1 sequence (whole entry): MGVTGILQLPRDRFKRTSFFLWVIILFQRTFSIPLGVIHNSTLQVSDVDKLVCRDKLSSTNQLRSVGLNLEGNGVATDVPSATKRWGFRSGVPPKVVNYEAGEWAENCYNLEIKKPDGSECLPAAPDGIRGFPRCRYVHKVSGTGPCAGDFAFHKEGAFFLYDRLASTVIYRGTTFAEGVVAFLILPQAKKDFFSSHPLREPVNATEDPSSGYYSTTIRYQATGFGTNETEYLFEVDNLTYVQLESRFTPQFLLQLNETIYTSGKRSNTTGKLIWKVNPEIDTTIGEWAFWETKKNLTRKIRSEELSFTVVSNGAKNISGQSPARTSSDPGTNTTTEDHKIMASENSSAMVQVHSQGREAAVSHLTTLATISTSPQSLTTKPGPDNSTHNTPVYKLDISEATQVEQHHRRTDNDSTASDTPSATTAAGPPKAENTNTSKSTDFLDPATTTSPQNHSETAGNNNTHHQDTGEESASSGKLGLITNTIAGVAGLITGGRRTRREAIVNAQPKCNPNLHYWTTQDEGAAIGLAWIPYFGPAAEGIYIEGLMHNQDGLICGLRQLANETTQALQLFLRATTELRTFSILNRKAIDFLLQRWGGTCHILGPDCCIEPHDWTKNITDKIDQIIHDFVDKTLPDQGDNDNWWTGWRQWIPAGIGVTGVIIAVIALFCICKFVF

Ebolavirus [2] = assay: microbe, parasite or virus in culture; assay type: functional; details: Orthoebolavirus, Vero C1008, 48 h
Ebolavirus [3] = assay: microbe, parasite or virus in culture; assay type: functional, cell-based; details: Orthoebolavirus, HepG2, 48 h
Envelope glycoprotein = molecular target: T2, Envelope glycoprotein (Zaire ebolavirus (strain Mayinga-76) (ZEBOV) (Zaire Ebola virus), UniProt Q05320); assay: Binding affinity to Ebola virus Zaire Mayinga-76 recombinant GP protein by SYPRO orange dye-based fluorescence assay; parameters: species or system 1976
T2 sequence (Q05320 whole entry): T1 sequence (whole entry)

Structure (SMILES) | ΔTm [1] | IC50 (Ebolavirus [2]) | IC50 (Ebolavirus [3]) | Kd (Envelope glycoprotein)
CN1[C@@H]2CC[C@@H]1CC(OC(c1ccccc1)c1ccccc1)C2 (relative stereo) | -6 °C |  |  | 
CN(C)CCOc1ccc(/C(=C(/CCCl)c2ccccc2)c2ccccc2)cc1 [TOREMIFENE] |  | 0.162 µM | 0.026 µM | 
CC(C)COCC(CN(Cc1ccccc1)c1ccccc1)N1CCCC1 (configuration not stated) [BEPRIDIL] | -6 °C | 5.08 µM | 3.21 µM | 290 µM
CN[C@H]1CC[C@@H](c2ccc(Cl)c(Cl)c2)c2ccccc21 [SERTRALINE] | -3 °C |  |  | 
Fc1ccc([C@@H]2CCNC[C@H]2COc2ccc3c(c2)OCO3)cc1 [PAROXETINE] | -4 °C | 7.45 µM | 1.38 µM | 650 µM
